This is an account of results in paper doi:10.1101/850305v1 (biorxiv, 2019).

One assay relates to VECO2526 E. coli ΔtolC. Kind of assay: microbe, parasite or virus in culture. The note with it: Escherichia coli.
The subject of a further assay is CDY0154 E. coli Δ9efflux. Kind of assay: microbe, parasite or virus in culture. The note with it: Escherichia coli.
For assay [1], the system named is ATCC 25922 E. coli clinical isolates. Kind of assay: microbe, parasite or virus in culture. Conditions: Escherichia coli.
A further assay deals with MG1655 E. coli K-12. Kind of assay: microbe, parasite or virus in culture. The note with it: Escherichia coli.
In assay [2] the test system is Escherichia coli TUP0115 ΔtolC pLacZα. In words: microbe, parasite or virus in culture. Conditions: read-out: MIC.
Assay [3] has as its target T1, E. coli LpxA (Escherichia coli, UniProt P0A722).
T1 sequence (P0A722 1-262): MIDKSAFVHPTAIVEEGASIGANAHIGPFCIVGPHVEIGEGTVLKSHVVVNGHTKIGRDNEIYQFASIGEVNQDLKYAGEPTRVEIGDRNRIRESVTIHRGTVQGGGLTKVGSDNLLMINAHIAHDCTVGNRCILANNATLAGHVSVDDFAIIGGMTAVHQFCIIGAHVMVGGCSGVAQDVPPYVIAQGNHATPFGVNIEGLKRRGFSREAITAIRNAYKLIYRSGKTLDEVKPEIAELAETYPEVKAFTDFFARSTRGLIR
Kind of assay: SPE-MS detection of LpxA product. Type of assay: biochemical.

The target of assay [4] is T1, E. coli LpxA. In words: SPR. Type of assay: binding.
The target of assay [5] is T1, E. coli LpxA. Kind of assay: SPE-MS detection of LpxA product. The assay is classed as biochemical. This is another data set of the same source.
Assay [6] addresses T1, E. coli LpxA. Kind of assay: SPR. Type of assay: binding. This is another data set of the same source.
For assay [7], the target named is T1, E. coli LpxA. Kind of assay: SPE-MS detection of LpxA product. The assay is classed as biochemical. This is another data set of the same source.

Usually IC50 stands for the point on the concentration scale where inhibition reaches its midpoint. Higher therefore signals a need for much substance. By Kd is commonly meant a measure of binding affinity in units of concentration. Low readings indicate higher affinity, high ones lower affinity.

Each structure is given as a SMILES string. Converted amounts (≈) assume the structure as drawn. Read-outs that look alike come from different tables or passages of the source.

On to `C[C@@H](O)[C@H](NC(=O)c1ccc(C#Cc2ccc(CN3CCOCC3)cc2)cc1)C(=O)NO` [CHIR-090], for which the MIC turned out to be 0.015 µg/mL (≈ 0.0343 µM) in the assay on VECO2526 E. coli ΔtolC (read-out: MIC CHIR-090) and 0.075 µg/mL (≈ 0.171 µM) in the assay on CDY0154 E. coli Δ9efflux (read-out: MIC CHIR-090).

For the compound `COc1ccc(C(=O)CN2C(=O)NC(c3ccccc3)(c3ccccc3)C2=O)cc1` [compound 1], the MIC in assay [1] (ATCC25922, read-out: MIC compound 1) is more than 16 µg/mL; in the assay with MG1655 E. coli K-12 (MG1655, read-out: MIC compound 1) it was more than 16 µg/mL; in [2], 0.5 µg/mL (≈ 1.25 µM); with VECO2526 E. coli ΔtolC (read-out: MIC compound 1) it was 0.5 µg/mL (≈ 1.25 µM); in the assay with CDY0154 E. coli Δ9efflux (read-out: MIC compound 1), 0.5 µg/mL (≈ 1.25 µM). Moreover, inhibition against E. coli LpxA [3] was half-maximal at 1.4 µM (IC50). On E. coli LpxA [4], this compound gave an equilibrium dissociation constant (Kd) of 0.1 µM. For the compound `Cc1ccnc(-c2cc(C(=O)N3CCOC[C@H]3Cc3ccccc3)[nH]n2)c1` [compound 2], the MIC is more than 128 µg/mL in assay [1] (ATCC25922, read-out: MIC compound 2); more than 128 µg/mL in the assay with MG1655 E. coli K-12 (MG1655, read-out: MIC compound 2); 2 µg/mL (≈ 5.52 µM) in the assay with VECO2526 E. coli ΔtolC (read-out: MIC compound 2); 2 µg/mL (≈ 5.52 µM) in the assay on CDY0154 E. coli Δ9efflux (read-out: MIC compound 2). Also, at E. coli LpxA [5], half-maximal inhibition (IC50) required 4.8 µM. Besides, the Kd on E. coli LpxA [6] came out at 110 µM. Take `Cc1ccnc(-c2cc(C(=O)N3CCOCC3)[nH]n2)c1` [compound 3]: on E. coli LpxA [3], the IC50 was more than 250 µM. For `Cc1ccnc(-c2cc(C(=O)N3CCOC[C@H]3C(C)C)[nH]n2)c1` [compound 4], inhibition at E. coli LpxA [3] was half-maximal at 148 µM (IC50). On E. coli LpxA [3], `Cc1ccnc(-c2cc(C(=O)N3CCOC[C@H]3Cc3ccccn3)[nH]n2)c1` [compound 5] registered a 50% inhibitory concentration (IC50) of 86 µM. Against the preceding compound, the IC50 is about 1.7-fold lower. Compound `Cc1ccnc(-c2cc(C(=O)N3CCOC[C@H]3Cc3ccccc3F)[nH]n2)c1` [compound 6] displayed an IC50 at E. coli LpxA [7] of 3 µM. In other words, the single-digit micromolar range. Regarding `Cc1ccnc(-c2cc(C(=O)N3CCOC[C@H]3Cc3ccccc3Cl)[nH]n2)c1` [compound 7], on E. coli LpxA [3], the IC50 amounted to 2.9 µM.

As to `COc1ccccc1C[C@@H]1COCCN1C(=O)c1cc(-c2cc(C)ccn2)n[nH]1` [compound 8], half-maximal inhibition at E. coli LpxA [7] (IC50) was put at 11 µM. Turning to `COc1cccc(F)c1C[C@@H]1COCCN1C(=O)c1cc(-c2cc(C)ccn2)n[nH]1` [compound 9], half-maximal inhibition on E. coli LpxA [3] (IC50) required 2.5 µM. That is a single-digit micromolar value. Same read-out and setting: the result for `COc1cccc(Cl)c1C[C@@H]1COCCN1C(=O)c1cc(-c2cc(C)ccn2)n[nH]1` [compound 11] reads 0.5 µM; that for `Cc1ccnc(-c2cc(C(=O)N3CCOC[C@@H]3Cc3ccccc3)[nH]n2)c1` [compound 12], 171 µM. `COc1cccc(Cl)c1C[C@@H]1COCCN1C(=O)c1cc(-c2cc(C)c(N)cn2)n[nH]1` [compound 13] displayed an IC50 against E. coli LpxA [7] of 0.6 µM.
